Patent US10676461B2, “Heterocyclic compound” (TAKEDA PHARMACEUTICAL COMPANY LIMITED, priority 2016, dated 2020)

System: sphingomyelin in the cerebral cortex
Experiment: Efficacy evaluation test using sphingomyelin accumulation model mouse (Niemann-Pick disease type A and type B model)
Type: in vivo, mouse (C57BL/6J Jcl)
Details: for Amount of sphingomyelin per wet weight of cerebral cortex: twice daily, 2 wk, imipramine hydrochloride 40 mg/kg i.p. once daily, 4 wk, male mouse, Mean ± S.D., N = 7-8
Description: Test Example 4 Efficacy Evaluation Test Using Sphingomyelin Accumulation Model Mouse as Niemann-Pick Disease Type A and Type B Model
A phase 1b clinical trial on Niemann-Pick disease type B which develops by abnormality in acid sphingomyelinase has reported that the administration of recombinant acid sphingomyelinase (olipudase alfa) decreased sphingomyelin accumulated in a peripheral organ such as the liver, and this led to the amelioration of the pathological condition (Am J Surg Pathol. 2016; 40: 1232).
Also, the intraperitoneal administration of an acid sphingomyelinase inhibitor, imipramine hydrochloride, to a mouse increases its enzyme substrate, sphingomyelin, not only in a peripheral organ such as the liver but in the central nervous system such as the cerebrum, and the mouse obtained by such administration is recognized as an animal model that can induce sphingomyelin accumulation, as in human Niemann-Pick disease type A and type B, in each tissue (Gen Physiol Biophys 2016; 35: 195).
Accordingly, the compound of the present invention was evaluated as a SPT inhibitor for its sphingomyelin-lowering effect on Niemann-Pick disease type B, and Niemann-Pick disease type A, which also accumulates sphingomyelin in the central nervous system such as the cerebral cortex, by the following method. Imipramine hydrochloride (Wako Pure Chemical Industries, Ltd.) was dissolved at a concentration of 2 mg/mL in saline and intraperitoneally administered at a dose of 40 mg/kg to each 6-week-old male C57BL/6J Jcl mouse (CLEA Japan, Inc.) for 2 weeks once daily. […] In this operation, the intraperitoneal administration of imipramine hydrochloride was also carried out once daily concurrently therewith. After the completion of the administration of the SPT inhibitor, the cerebrum was excised from the mouse cranium and separated into the cortex and the medulla. The cortical portion was rapidly frozen in liquid nitrogen and then disrupted using ShakeMaster Auto (Bio-Medical Science Co., Ltd.) under freezing. 2-Propanol (containing 0.002% of BHT (dibutylhydroxytoluene as a fat and oil antioxidant) was added thereto in an amount of 9 mL/g of wet weight, and lipids in the cerebral cortex were extracted by suspension using ShakeMaster Auto again. The concentration of sphingomyelin contained in the 2-propanol was measured using a sphingomyelin assay kit (Abcam, Inc., ab138877) based on the fluorescence quantification method. EnVision 2102 Multilabel Reader (PerkinElmer Inc.) was used in fluorescence measurement.
From this, it was able to be confirmed that a model mimicking Niemann-Pick disease type A and type B which accumulate sphingomyelin in the cerebral cortex was established by the intraperitoneal administration of imipramine hydrochloride for 4 weeks.

SMILES: Cn1nc(C(=O)N[C@@H]2CCN(C(=O)c3cc(Cl)c4nccnc4c3)C[C@@H]2c2ccc(F)cc2)cc1C(F)(F)F [Example 1, N-((3S,4R)-1-((8-Chloroquinoxalin-6-yl)carbonyl)-3-(4-fluorophenyl)piperidin-4-yl)-1-methyl-5-(trifluoromethyl)-1H-pyrazole-3-carboxamide]
- Amount of sphingomyelin per wet weight of cerebral cortex (group 3: 0.3 mg/kg oral): 3.282 ± 0.260 µg/g
- Amount of sphingomyelin per wet weight of cerebral cortex (group 4: 1.0 mg/kg oral): 2.972 ± 0.635 µg/g
- Amount of sphingomyelin per wet weight of cerebral cortex (group 5: 3.0 mg/kg oral): 2.952 ± 0.219 µg/g
- effect of suppressing sphingomyelin accumulation in the cerebral cortex (oral, 2 weeks twice daily, single dose 0.3, 1.0 and 3.0 mg/kg, imipramine model mouse, p<0.025, one-tailed Williams' test): dose-dependent significant effect of suppressing sphingomyelin accumulation in the cerebral cortex
